# Reference: patent US11208405B2, “Pyrrole derivatives as PLK1 inhibitors” (SENTINEL ONCOLOGY LIMITED, priority 2017, dated 2021)
# Where a name gives a salt, the structure may show the parent alone.
# Assays:
# [1] = system: glioblastoma cell line 906871; assay: Glioblastoma cancer cell viability, cell line 906871; format: cell-based
# Procedure: (§1) Assay to Measure the Effects of Compounds of the Invention on Glioblastoma Cancer Cell Viability
# (§2) The compound of Example 33 was tested for inhibitory activity against the glioblastoma cell lines in Table 7 below.
# NEK3 = molecular target: T1, NEK3 (Homo sapiens, UniProt P51956); assay: Kinase selectivity assay (DiscoverX KinomeScreen), NEK3; format: binding; details: NEK3, 5 μM; read-out: % Control
# T1 construct: purchased DiscoverX
# T1 sequence (P51956 whole entry): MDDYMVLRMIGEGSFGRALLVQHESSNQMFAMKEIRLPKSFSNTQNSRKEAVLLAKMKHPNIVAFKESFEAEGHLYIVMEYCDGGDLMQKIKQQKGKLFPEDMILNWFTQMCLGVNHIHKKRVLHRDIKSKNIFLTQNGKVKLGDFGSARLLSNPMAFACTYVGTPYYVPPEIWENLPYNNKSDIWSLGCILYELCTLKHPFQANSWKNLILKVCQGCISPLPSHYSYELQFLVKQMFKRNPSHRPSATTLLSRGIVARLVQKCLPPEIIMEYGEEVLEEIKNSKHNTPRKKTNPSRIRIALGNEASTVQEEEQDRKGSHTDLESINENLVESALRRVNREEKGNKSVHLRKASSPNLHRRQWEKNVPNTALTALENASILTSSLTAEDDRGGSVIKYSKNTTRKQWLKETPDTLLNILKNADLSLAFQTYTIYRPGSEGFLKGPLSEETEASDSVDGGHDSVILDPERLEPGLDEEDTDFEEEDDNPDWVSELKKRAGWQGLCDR
# Procedure: (§3) The compound of Example 33 was tested for off-target activity against a panel of fifty five kinases bearing functional or structural similarity to PLK1 at a concentration of 5 μM using the DiscoverX KinomeScreen assay.
# PLK4 = molecular target: T2, PLK4 (Homo sapiens, UniProt O00444); assay: Kinase selectivity assay (DiscoverX KinomeScreen), PLK4; format: binding; details: PLK4, 5 μM; read-out: % Control
# T2 construct: purchased DiscoverX
# Procedure: as §3
# [2] = system: HCT116 cells (a mutant KRAS G-13D expressing cell line); assay: Drug resistance studies in HCT116 cells; format: cell-based; details: five times the half maximal growth inhibiting amount, twenty two days
# NEK9 = molecular target: T3, NEK9 (Homo sapiens, UniProt Q8TD19); assay: Kinase selectivity assay (DiscoverX KinomeScreen), NEK9; format: binding; details: NEK9, 5 μM; read-out: % Control
# T3 construct: purchased DiscoverX
# Procedure: as §3
# ROCK2 = molecular target: T4, ROCK2 (Homo sapiens, UniProt O75116); assay: Kinase selectivity assay (DiscoverX KinomeScreen), ROCK2; format: binding; details: ROCK2, 5 μM; read-out: % Control
# T4 construct: purchased DiscoverX
# Procedure: as §3
# [3] = Stability in human hepatocytes; format: in vitro ADME
# [4] = system: glioblastoma cell line 687586; assay: Glioblastoma cancer cell viability, cell line 687586; format: cell-based
# Procedure: as §1, §2
# NEK11 = molecular target: T5, NEK11 (Homo sapiens, UniProt Q8NG66); assay: Kinase selectivity assay (DiscoverX KinomeScreen), NEK11; format: binding; details: NEK11, 5 μM; read-out: % Control
# T5 construct: purchased DiscoverX
# T5 sequence (Q8NG66 whole entry): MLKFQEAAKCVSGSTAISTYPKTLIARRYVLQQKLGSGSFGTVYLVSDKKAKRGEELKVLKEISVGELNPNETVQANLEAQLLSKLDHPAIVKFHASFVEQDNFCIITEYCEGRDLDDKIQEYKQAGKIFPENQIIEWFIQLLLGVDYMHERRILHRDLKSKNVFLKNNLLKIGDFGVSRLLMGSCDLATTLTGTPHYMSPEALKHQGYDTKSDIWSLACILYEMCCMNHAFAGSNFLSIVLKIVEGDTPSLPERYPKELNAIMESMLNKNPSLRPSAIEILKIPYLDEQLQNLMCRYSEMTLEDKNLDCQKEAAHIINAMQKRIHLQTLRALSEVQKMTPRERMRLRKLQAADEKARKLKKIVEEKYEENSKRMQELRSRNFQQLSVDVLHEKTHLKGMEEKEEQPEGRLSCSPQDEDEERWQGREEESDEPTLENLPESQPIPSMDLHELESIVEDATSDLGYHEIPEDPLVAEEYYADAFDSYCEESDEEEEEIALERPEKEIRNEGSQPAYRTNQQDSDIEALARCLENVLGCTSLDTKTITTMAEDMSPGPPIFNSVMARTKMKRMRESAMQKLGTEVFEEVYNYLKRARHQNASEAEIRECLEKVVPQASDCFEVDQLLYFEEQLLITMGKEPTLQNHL
# Procedure: as §3
# TBK1 = molecular target: T6, TBK1 (Homo sapiens, UniProt Q9UHD2); assay: Kinase selectivity assay (DiscoverX KinomeScreen), TBK1; format: binding; details: TBK1, 5 μM; read-out: % Control
# T6 construct: purchased DiscoverX
# T6 sequence (Q9UHD2 whole entry): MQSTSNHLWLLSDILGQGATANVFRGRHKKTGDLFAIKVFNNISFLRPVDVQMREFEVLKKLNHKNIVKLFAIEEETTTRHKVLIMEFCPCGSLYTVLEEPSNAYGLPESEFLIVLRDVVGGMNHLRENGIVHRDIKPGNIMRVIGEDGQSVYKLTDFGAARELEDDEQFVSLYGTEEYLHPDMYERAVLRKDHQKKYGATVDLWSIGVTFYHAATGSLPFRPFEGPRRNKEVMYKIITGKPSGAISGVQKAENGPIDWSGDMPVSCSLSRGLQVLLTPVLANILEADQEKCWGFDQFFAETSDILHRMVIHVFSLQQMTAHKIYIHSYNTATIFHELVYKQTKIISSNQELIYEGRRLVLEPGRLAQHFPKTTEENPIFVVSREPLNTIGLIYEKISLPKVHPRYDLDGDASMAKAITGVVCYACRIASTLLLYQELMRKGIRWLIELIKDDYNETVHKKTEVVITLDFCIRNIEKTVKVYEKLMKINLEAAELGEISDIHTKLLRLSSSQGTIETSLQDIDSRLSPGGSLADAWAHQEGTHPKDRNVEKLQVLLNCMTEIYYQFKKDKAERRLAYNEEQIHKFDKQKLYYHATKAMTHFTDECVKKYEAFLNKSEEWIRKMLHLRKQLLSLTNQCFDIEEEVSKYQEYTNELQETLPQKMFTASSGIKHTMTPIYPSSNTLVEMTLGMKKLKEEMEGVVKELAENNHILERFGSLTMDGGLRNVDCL
# Procedure: as §3
# cytochrome P450 2D6 = cytochrome P450 2D6 (Homo sapiens, UniProt P10635); assay: Cytochrome P450 inhibition, 2D6; format: in vitro ADME
# Chain of cytochrome P450 2D6 (P10635 whole entry): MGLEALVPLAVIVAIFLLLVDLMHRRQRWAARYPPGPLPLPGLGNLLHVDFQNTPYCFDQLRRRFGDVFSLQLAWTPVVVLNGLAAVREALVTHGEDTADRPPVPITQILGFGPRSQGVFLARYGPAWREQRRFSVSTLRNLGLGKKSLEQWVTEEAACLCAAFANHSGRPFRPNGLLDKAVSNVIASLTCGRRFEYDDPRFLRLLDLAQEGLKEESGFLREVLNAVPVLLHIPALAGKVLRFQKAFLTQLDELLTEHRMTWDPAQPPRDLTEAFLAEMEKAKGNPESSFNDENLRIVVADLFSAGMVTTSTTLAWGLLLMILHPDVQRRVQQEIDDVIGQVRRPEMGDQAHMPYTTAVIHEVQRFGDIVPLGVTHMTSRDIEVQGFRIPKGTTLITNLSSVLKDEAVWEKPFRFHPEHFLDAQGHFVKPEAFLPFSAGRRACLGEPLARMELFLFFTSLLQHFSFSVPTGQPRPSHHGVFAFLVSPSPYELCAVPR
# WNK2 = molecular target: T7, WNK2 (Homo sapiens, UniProt Q9Y3S1); assay: Kinase selectivity assay (DiscoverX KinomeScreen), WNK2; format: binding; details: WNK2, 5 μM; read-out: % Control
# T7 construct: purchased DiscoverX
# T7 sequence (Q9Y3S1 whole entry): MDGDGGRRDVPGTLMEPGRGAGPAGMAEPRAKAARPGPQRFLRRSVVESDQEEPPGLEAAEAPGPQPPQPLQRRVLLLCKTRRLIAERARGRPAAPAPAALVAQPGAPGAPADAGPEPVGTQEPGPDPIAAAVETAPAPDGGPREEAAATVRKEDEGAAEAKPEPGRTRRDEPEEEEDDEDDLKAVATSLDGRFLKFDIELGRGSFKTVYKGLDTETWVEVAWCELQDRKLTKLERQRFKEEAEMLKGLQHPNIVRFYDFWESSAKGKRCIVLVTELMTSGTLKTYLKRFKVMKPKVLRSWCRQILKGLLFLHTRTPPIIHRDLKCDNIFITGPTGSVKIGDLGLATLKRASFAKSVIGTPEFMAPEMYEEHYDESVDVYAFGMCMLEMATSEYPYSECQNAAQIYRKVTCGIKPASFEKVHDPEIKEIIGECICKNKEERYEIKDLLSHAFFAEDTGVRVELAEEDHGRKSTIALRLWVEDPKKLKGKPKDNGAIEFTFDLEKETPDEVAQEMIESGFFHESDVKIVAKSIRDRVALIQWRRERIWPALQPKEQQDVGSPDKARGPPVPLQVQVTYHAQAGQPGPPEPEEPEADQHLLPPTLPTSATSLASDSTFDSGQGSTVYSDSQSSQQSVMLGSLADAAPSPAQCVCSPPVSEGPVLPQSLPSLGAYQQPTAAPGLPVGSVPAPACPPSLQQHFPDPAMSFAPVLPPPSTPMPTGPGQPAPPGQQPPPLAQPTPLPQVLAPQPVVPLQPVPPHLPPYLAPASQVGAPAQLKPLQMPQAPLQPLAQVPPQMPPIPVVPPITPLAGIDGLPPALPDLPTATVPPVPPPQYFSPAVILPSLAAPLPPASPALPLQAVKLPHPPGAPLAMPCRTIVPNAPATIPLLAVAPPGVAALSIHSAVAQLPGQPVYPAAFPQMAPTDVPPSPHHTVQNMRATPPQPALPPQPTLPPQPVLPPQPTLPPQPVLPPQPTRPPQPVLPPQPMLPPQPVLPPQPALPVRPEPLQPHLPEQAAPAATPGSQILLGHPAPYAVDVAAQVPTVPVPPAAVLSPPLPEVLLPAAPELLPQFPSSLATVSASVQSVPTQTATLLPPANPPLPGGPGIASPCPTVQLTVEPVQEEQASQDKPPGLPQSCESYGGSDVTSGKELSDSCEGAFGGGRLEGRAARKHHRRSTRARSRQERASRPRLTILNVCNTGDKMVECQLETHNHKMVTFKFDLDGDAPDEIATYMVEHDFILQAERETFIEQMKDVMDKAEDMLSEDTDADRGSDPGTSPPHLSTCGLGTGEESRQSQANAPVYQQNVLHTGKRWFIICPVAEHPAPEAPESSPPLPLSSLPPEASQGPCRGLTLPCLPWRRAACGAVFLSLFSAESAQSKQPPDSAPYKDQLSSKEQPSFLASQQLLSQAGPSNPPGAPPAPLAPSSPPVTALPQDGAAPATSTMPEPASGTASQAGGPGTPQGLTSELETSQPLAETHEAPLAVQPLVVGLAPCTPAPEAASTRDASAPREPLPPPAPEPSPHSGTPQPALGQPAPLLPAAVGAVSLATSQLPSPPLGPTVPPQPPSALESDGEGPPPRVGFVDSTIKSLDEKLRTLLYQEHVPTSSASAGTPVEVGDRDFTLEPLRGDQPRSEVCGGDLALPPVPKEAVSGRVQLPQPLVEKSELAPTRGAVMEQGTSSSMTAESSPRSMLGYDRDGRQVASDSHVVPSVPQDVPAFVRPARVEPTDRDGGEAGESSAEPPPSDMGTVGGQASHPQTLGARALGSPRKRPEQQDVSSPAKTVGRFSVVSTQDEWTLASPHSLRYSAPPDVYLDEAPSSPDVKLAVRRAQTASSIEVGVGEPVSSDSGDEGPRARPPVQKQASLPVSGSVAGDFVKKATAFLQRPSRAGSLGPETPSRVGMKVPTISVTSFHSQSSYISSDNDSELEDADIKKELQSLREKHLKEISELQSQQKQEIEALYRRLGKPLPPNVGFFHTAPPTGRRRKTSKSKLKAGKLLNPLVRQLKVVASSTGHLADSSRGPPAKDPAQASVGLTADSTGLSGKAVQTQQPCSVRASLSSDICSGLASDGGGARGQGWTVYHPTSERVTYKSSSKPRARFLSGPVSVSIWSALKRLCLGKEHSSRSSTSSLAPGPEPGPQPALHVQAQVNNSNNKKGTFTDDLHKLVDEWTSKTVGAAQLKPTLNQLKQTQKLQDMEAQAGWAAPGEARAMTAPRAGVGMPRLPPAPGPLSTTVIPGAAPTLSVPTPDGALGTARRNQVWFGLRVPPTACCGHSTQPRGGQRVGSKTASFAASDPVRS
# Procedure: as §3
# ERN1 = molecular target: T8, ERN1 (Homo sapiens, UniProt O75460); assay: Kinase selectivity assay (DiscoverX KinomeScreen), ERN1; format: binding; details: ERN1, 5 μM; read-out: % Control
# T8 construct: purchased DiscoverX
# Procedure: as §3
# [5] = system: glioblastoma cell line 907271; assay: Glioblastoma cancer cell viability, cell line 907271; format: cell-based
# Procedure: as §1, §2
# TLK2 = molecular target: T9, TLK2 (Homo sapiens, UniProt Q86UE8); assay: Kinase selectivity assay (DiscoverX KinomeScreen), TLK2; format: binding; details: TLK2, 5 μM; read-out: % Control
# T9 construct: purchased DiscoverX
# Procedure: as §3
# AURKC = molecular target: T10, AURKC (Homo sapiens, UniProt Q9UQB9); assay: Kinase selectivity assay (DiscoverX KinomeScreen), AURKC; format: binding; details: read-out: % Control
# T10 construct: purchased DiscoverX
# Procedure: as §3
# KRAS G12V HeLa cell line = assay: Wild-type versus KRAS HeLa cell viability: oncogenic KrasG12V transgene; format: cell-based; details: Homo sapiens; HeLa cells expressing KRAS G12V, 72 hours
# Procedure: Assay to Measure the Effects of Compounds of the Invention on Wild-Type Versus KRAS HeLa Cell Viability
# Identifying synthetic lethal interactions between targeted small molecule therapies and characterised oncogenic mutations is a goal of modern oncology drug discovery efforts. To this end, PLK1-PBD inhibitors were tested on HeLa cells engineered to inducibly express wild-type or oncogenic KrasG12V transgenes using the FLP-in/T-Rex system (Invitrogen). Cells were plated, and then treated with or without Doxycycline to induce transgene expression, and then treated with serially-diluted PBD inhibitors. After 72 hours of incubation, cell viability was assessed using the Cell Titre Blue reagent (Promega) and a BMG Pherastar plate reader. The effect of PBD inhibition on cell viability with either wild-type or oncogenic G12V KRAS was assessed using the graphing/curve-fitting packages in GraphPad Prism.
# EIF2AK4 = assay: Kinase selectivity assay (DiscoverX KinomeScreen), EIF2AK4; format: binding; details: EIF2AK4, 5 μM
# Procedure: as §3
# [6] = system: glioblastoma cell line 946368; assay: Glioblastoma cancer cell viability, cell line 946368; format: cell-based
# Procedure: as §1, §2
# AURKA = molecular target: T11, AURKA (Homo sapiens, UniProt O14965); assay: Kinase selectivity assay (DiscoverX KinomeScreen), AURKA; format: binding; details: read-out: % Control
# T11 construct: purchased DiscoverX
# T11 sequence (O14965 whole entry): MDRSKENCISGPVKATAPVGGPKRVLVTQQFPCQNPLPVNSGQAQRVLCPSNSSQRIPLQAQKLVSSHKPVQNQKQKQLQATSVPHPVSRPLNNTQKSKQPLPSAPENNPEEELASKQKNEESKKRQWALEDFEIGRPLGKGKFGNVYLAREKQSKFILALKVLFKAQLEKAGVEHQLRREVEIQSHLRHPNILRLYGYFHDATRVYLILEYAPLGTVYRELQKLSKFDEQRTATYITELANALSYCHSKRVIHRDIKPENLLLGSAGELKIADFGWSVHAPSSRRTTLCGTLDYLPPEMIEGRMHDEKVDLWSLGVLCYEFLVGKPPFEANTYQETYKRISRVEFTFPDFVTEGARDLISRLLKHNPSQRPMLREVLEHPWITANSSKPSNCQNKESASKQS
# Procedure: as §3
# [7] = system: glioblastoma cell line 949094; assay: Glioblastoma cancer cell viability, cell line 949094; format: cell-based
# Procedure: as §1, §2
# PKMYT1 = molecular target: T12, PKMYT1 (Homo sapiens, UniProt Q99640); assay: Kinase selectivity assay (DiscoverX KinomeScreen), PKMYT1; format: binding; details: PKMYT1, 5 μM; read-out: % Control
# T12 construct: purchased DiscoverX
# Procedure: as §3
# WNK4 = molecular target: T13, WNK4 (Homo sapiens, UniProt Q96J92); assay: Kinase selectivity assay (DiscoverX KinomeScreen), WNK4; format: binding; details: WNK4, 5 μM; read-out: % Control
# T13 construct: purchased DiscoverX
# Procedure: as §3
smiles,measurement,setting,value
"CN(C)CCNC(=O)c1ccc(-c2ccc(-c3ccc(Cl)cc3)n2-c2ccccc2C(F)(F)F)cc1 [Example 33, 4-[5-(4-chlorophenyl)-1-[2-(trifluoromethyl)phenyl]pyrrol-2-yl]-N-[2-(dimethylamino)ethyl]benzamide Hydrochloride]",IC50,[1],283 nM
same,remaining activity at 5 µM,NEK3,74%
same,remaining activity at 5 µM,PLK4,90%
same,formation of drug-resistant colonies,[2],not
same,remaining activity at 5 µM,NEK9,92%
same,remaining activity at 5 µM,ROCK2,100%
same,hepatocyte CLint,[3],10 µL/min/1e6 cells
same,IC50,[4],489 nM
same,remaining activity at 5 µM,NEK11,100%
same,remaining activity at 5 µM,TBK1,80%
same,cytochrome P450 inhibition 2D6,cytochrome P450 2D6,> 10 µM
same,remaining activity at 5 µM,WNK2,100%
same,remaining activity at 5 µM,ERN1,74%
same,IC50,[5],2060 nM
same,remaining activity at 5 µM,TLK2,94%
same,remaining activity at 5 µM,AURKC,85%
same,GI50,KRAS G12V HeLa cell line,10 nM
same,% Control,EIF2AK4,97%
same,IC50,[6],1400 nM
same,remaining activity at 5 µM,AURKA,83%
same,IC50,[7],709 nM
same,remaining activity at 5 µM,PKMYT1,100%
same,remaining activity at 5 µM,WNK4,91%
